In patent US20100285959A1, “HERBICIDAL MIXTURES” (priority 2006, published 2010):

Assays:
redroot pigweed (AMARE) [1] = assay: Test 24 growth chamber, postemergence; format: in vivo, Amaranthus retroflexus; details: 17 DAA
Procedure: (§1) Plants were treated postemergence at the 2-4 leaf growth stage, and each treatment was replicated three times. […] Plants were watered as needed. […] Results for barley and wheat are the means across varieties of the three replicates, and results for the weeds are the means of the three replicates.

winter wheat (TRZAW) = assay: Test 27 field trial, postemergence; format: in vivo, Triticum aestivum; design: scale not given here
Source text: Wheat seeds (cv. ‘Custer’) were planted in late fall season in a clay loam soil. Plots were 9 m long by 1.8 m wide. The field was managed using conventional tillage practices. […] All treatments also included a surfactant. […] Results are the means of the three replicates.

galium (GALAP) = assay: Test 24 growth chamber, postemergence; format: in vivo, Galium aparine; details: 17 DAA
Procedure: as §1

corn (ZEAMD) = assay: Test 31 field trial, corn hybrids at V4 growth stage; format: in vivo, Zea mays ssp. indentata; details: postemergence, 14 DAA; for 34A15 Obs: corn hybrid 34A15; for 34N43 Obs: corn hybrid 34N43; for 35D28 Obs: corn hybrid 35D28; for 3730 Obs: corn hybrid 3730
Source text: Corn seeds of hybrids Pioneer ‘34A15’, ‘34N43’, ‘35D28’, and ‘3730’ were planted in mid-spring season, approximately 3.8 cm deep in a sandy loam soil having 3.8% organic matter and a pH of 6.5. Plots were 9.1 m long by 3.0 m wide with rows spaced 76 cm apart. Seeds were spaced approximately 18 cm apart within the rows. The field was managed using conventional tillage practices. Plots were arranged with hybrid as the main block and herbicide treatments randomized within each block. Treatments were applied to corn in the V4 growth stage using a backpack sprayer delivering a spray volume of 131 L/ha with a pressure of 221 kPa. Treatments consisted of Compound 2 alone and in combination with a premix formulation of foramsulfuron and isoxadifen-ethyl, dissolved or suspended in water containing the spray adjuvants ammonium sulfate, applied at 1 kg/Ha, and methylated seed oil, applied at 1% vol/vol. Effects on the treated corn plants and untreated controls were recorded 14 days after application.

velvetleaf (ABUTH) = assay: Test 17 greenhouse, post- and preemergence; format: in vivo, Abutilon theophrasti; details: 12 DAA
Source text: Plants were watered as needed.

giant foxtail (SETFA) [2] = assay: Test 26 field trial, postemergence; format: in vivo, Setaria faberi; design: scale not given here
Source text: Corn seeds (hybrid ‘Pioneer 31G96’) were planted in mid spring season, 3.8 cm deep in a silt loam soil having 2% organic matter and a pH of 6.6. Plots were 6.1 m long by 3.0 m wide with rows spaced 76 cm apart. Seeds were spaced 15 cm apart within the rows. The field was managed using conventional tillage practices. […] All treatments also included a surfactant. […] Some of the weed species could not be evaluated at every timing. […] Results are the means of the three replicates.

giant foxtail (SETFA) [3] = assay: Test 25 field trial, postemergence, growth as percent of control; format: in vivo, Setaria faberi
Source text: (§2) Corn seeds (hybrid ‘Pioneer 31G96 RR’) were planted in mid spring season, 3.8 cm deep in a clay loam soil having 2% organic matter and a pH of 6.6. Plots were 6.1 m long by 3.0 m wide with rows spaced 76 cm apart. Seeds were spaced 15 cm apart within the rows. The field was managed using conventional tillage practices. […] Giant ragweed and Pennsylvania smartweed could only be evaluated 14 days after application. […] Results are the means of the three replicates. This growth inhibition data was converted to results in the form of “plant growth as a percent of control plant growth” using the calculation “100 minus growth inhibition”.
(§3) When this form of Colby's Equation is used, if the observed effects on weeds are less than the expected values, the mixture is synergistic.

kochia (KCHSC) = assay: Test 24 growth chamber, postemergence; format: in vivo, Kochia scoparia; details: 17 DAA
Procedure: as §1

redroot pigweed (AMARE) [4] = assay: Test 25 field trial, postemergence, growth as percent of control; format: in vivo, Amaranthus retroflexus
Source text: as §2, §3

common ragweed (AMBEL) = assay: as above; format: in vivo, Ambrosia artemisiifolia
Source text: as §2, §3

mixed hardwoods (MXDSP) = assay: Test 13 field trial, postemergence, brush weeds; format: in vivo, Nyssa sylvatica, Acer rubrum, Liquidambar styraciflua; details: 56 DAA; g a.i./ha: Cpd 2 250; Fosamine-ammonium 6700
Source text: Plots were established in non-crop land and were 6.1 m long by 3.0 m wide. […] Treatments were applied postemergence to the brush weeds using a backpack sprayer delivering a spray volume of 468 L/ha using a pressure of 241 kPa. […] All treatments also included a surfactant. […] Results are the means of the three replicates.

SMILES: COC(=O)c1nc(C2CC2)nc(N)c1Cl [Compound 2, methyl 6-amino-5-chloro-2-cyclopropyl-4-pyrimidinecarboxylate]
- AMARE Obs (scale 0 to 100) (redroot pigweed (AMARE) [1]; Cpd 2 4 g a.i./ha): 63
- AMARE Obs (scale 0 to 100) (redroot pigweed (AMARE) [1]; Cpd 2 8 g a.i./ha): 67
- AMARE Obs (scale 0 to 100) (redroot pigweed (AMARE) [1]; Cpd 2 16 g a.i./ha): 75
- TRZAW Obs (winter wheat (TRZAW); 16 DAA, 15 g a.i./ha): 2
- TRZAW Obs (winter wheat (TRZAW); 16 DAA, 30 g a.i./ha): 10
- TRZAW Obs (winter wheat (TRZAW); 16 DAA, 45 g a.i./ha): 17
- TRZAW Obs (winter wheat (TRZAW); 28 DAA, 15 g a.i./ha): 0
- TRZAW Obs (winter wheat (TRZAW); 28 DAA, 30 g a.i./ha): 12
- TRZAW Obs (winter wheat (TRZAW); 28 DAA, 45 g a.i./ha): 25
- TRZAW Obs (winter wheat (TRZAW); 49 DAA, 15 g a.i./ha): 3
- TRZAW Obs (winter wheat (TRZAW); 49 DAA, 30 g a.i./ha): 17
- TRZAW Obs (winter wheat (TRZAW); 49 DAA, 45 g a.i./ha): 35
- GALAP Obs (scale 0 to 100) (galium (GALAP); Cpd 2 4 g a.i./ha): 73
- GALAP Obs (scale 0 to 100) (galium (GALAP); Cpd 2 8 g a.i./ha): 75
- GALAP Obs (scale 0 to 100) (galium (GALAP); Cpd 2 16 g a.i./ha): 87
- 34A15 Obs (corn (ZEAMD); Cpd 2 30 g a.i./ha): 25
- 34A15 Obs (corn (ZEAMD); Cpd 2 60 g a.i./ha): 30
- 34N43 Obs (corn (ZEAMD); Cpd 2 30 g a.i./ha): 15%
- 34N43 Obs (corn (ZEAMD); Cpd 2 60 g a.i./ha): 20%
- 35D28 Obs (corn (ZEAMD); Cpd 2 30 g a.i./ha): 60
- 35D28 Obs (corn (ZEAMD); Cpd 2 60 g a.i./ha): 65
- 3730 Obs (corn (ZEAMD); Cpd 2 30 g a.i./ha): 60
- 3730 Obs (corn (ZEAMD); Cpd 2 60 g a.i./ha): 75
- Obs response, scale 0 to 100 (velvetleaf (ABUTH); Postemergence, 15 g a.i./ha): 29
- Obs response, scale 0 to 100 (velvetleaf (ABUTH); Postemergence, 30 g a.i./ha): 30
- Obs response, scale 0 to 100 (velvetleaf (ABUTH); Postemergence, 45 g a.i./ha): 45
- Obs response, scale 0 to 100 (velvetleaf (ABUTH); Preemergence, 15 g a.i./ha): 10
- Obs response, scale 0 to 100 (velvetleaf (ABUTH); Preemergence, 30 g a.i./ha): 24
- Obs response, scale 0 to 100 (velvetleaf (ABUTH); Preemergence, 45 g a.i./ha): 45
- SETFA Obs (giant foxtail (SETFA) [2]; 28 DAA, 30 g a.i./ha): 98
- SETFA Obs (giant foxtail (SETFA) [2]; 28 DAA, 45 g a.i./ha): 97
- SETFA Obs (giant foxtail (SETFA) [2]; 28 DAA, 60 g a.i./ha): 99
- SETFA Obs (giant foxtail (SETFA) [2]; 56 DAA, 30 g a.i./ha): 50
- SETFA Obs (giant foxtail (SETFA) [2]; 56 DAA, 45 g a.i./ha): 73
- SETFA Obs (giant foxtail (SETFA) [2]; 56 DAA, 60 g a.i./ha): 70
- SETFA Obs (percent of control) (giant foxtail (SETFA) [3]; Cpd 2 15 g a.i./ha, 14 DAA): 93%
- SETFA Obs (percent of control) (giant foxtail (SETFA) [3]; Cpd 2 15 g a.i./ha, 28 DAA): 98%
- SETFA Obs (percent of control) (giant foxtail (SETFA) [3]; Cpd 2 15 g a.i./ha, 56 DAA): 100%
- SETFA Obs (percent of control) (giant foxtail (SETFA) [3]; Cpd 2 30 g a.i./ha, 14 DAA): 85%
- SETFA Obs (percent of control) (giant foxtail (SETFA) [3]; Cpd 2 30 g a.i./ha, 28 DAA): 88%
- SETFA Obs (percent of control) (giant foxtail (SETFA) [3]; Cpd 2 30 g a.i./ha, 56 DAA): 80%
- SETFA Obs (percent of control) (giant foxtail (SETFA) [3]; Cpd 2 45 g a.i./ha, 14 DAA): 73%
- SETFA Obs (percent of control) (giant foxtail (SETFA) [3]; Cpd 2 45 g a.i./ha, 28 DAA): 80%
- SETFA Obs (percent of control) (giant foxtail (SETFA) [3]; Cpd 2 45 g a.i./ha, 56 DAA): 83%
- KCHSC Obs (scale 0 to 100) (kochia (KCHSC); Cpd 2 4 g a.i./ha): 65
- KCHSC Obs (scale 0 to 100) (kochia (KCHSC); Cpd 2 8 g a.i./ha): 77
- KCHSC Obs (scale 0 to 100) (kochia (KCHSC); Cpd 2 16 g a.i./ha): 88
- AMARE Obs (percent of control) (redroot pigweed (AMARE) [4]; Cpd 2 15 g a.i./ha, 14 DAA): 47%
- AMARE Obs (percent of control) (redroot pigweed (AMARE) [4]; Cpd 2 15 g a.i./ha, 28 DAA): 38%
- AMARE Obs (percent of control) (redroot pigweed (AMARE) [4]; Cpd 2 15 g a.i./ha, 56 DAA): 0%
- AMARE Obs (percent of control) (redroot pigweed (AMARE) [4]; Cpd 2 30 g a.i./ha, 14 DAA): 35%
- AMARE Obs (percent of control) (redroot pigweed (AMARE) [4]; Cpd 2 30 g a.i./ha, 28 DAA): 22%
- AMARE Obs (percent of control) (redroot pigweed (AMARE) [4]; Cpd 2 30 g a.i./ha, 56 DAA): 0%
- AMARE Obs (percent of control) (redroot pigweed (AMARE) [4]; Cpd 2 45 g a.i./ha, 14 DAA): 28%
- AMARE Obs (percent of control) (redroot pigweed (AMARE) [4]; Cpd 2 45 g a.i./ha, 28 DAA): 20%
- AMARE Obs (percent of control) (redroot pigweed (AMARE) [4]; Cpd 2 45 g a.i./ha, 56 DAA): 28%
- AMBEL Obs (percent of control) (common ragweed (AMBEL); Cpd 2 15 g a.i./ha, 14 DAA): 20%
- AMBEL Obs (percent of control) (common ragweed (AMBEL); Cpd 2 15 g a.i./ha, 28 DAA): 16%
- AMBEL Obs (percent of control) (common ragweed (AMBEL); Cpd 2 15 g a.i./ha, 56 DAA): 0%
- AMBEL Obs (percent of control) (common ragweed (AMBEL); Cpd 2 30 g a.i./ha, 14 DAA): 22%
- AMBEL Obs (percent of control) (common ragweed (AMBEL); Cpd 2 30 g a.i./ha, 28 DAA): 12%
- AMBEL Obs (percent of control) (common ragweed (AMBEL); Cpd 2 30 g a.i./ha, 56 DAA): 0%
- AMBEL Obs (percent of control) (common ragweed (AMBEL); Cpd 2 45 g a.i./ha, 14 DAA): 12%
- AMBEL Obs (percent of control) (common ragweed (AMBEL); Cpd 2 45 g a.i./ha, 28 DAA): 8%
- AMBEL Obs (percent of control) (common ragweed (AMBEL); Cpd 2 45 g a.i./ha, 56 DAA): 0%
- MXDSP Obs (mixed hardwoods (MXDSP)): 45
